8 molecules from patent US20210040089A1, “KRAS MUTANT PROTEIN INHIBITORS” (Jacobio Pharmaceuticals Co., Ltd., priority 2019, published 2021) can be followed below.

For assay [1], the system named is Phospho-ERK1/2(THR202/TYR204) in NCI-H358 cells express KRAS G12C. As to the kind of experiment: Phospho-ERK1/2(THR202/TYR204) HTRF assay. The conditions noted are these: Homo sapiens; NCI-H358, 2 hours incubation; read-out: p-ERK inhibition in NCI-H358 IC50. Type of assay: cell-based. How it is done: NCI-H358 cells express KRAS G12C were cultured in RPMI 1640 medium (Gibco) containing 10% fetal bovine serum (Gibco). Cells in culture medium were plated in 96-well plates at a concentration of 40,000 cells/well and allowed to attach overnight. The next day, culture medium was removed and added compounds diluted in assay medium (RPMI 1640, 0.1% EFBS). After 2 hours incubation in a 37° C./5% CO2 cell incubator, the assay medium was removed, then 50 μL of 1× supplemented lysis buffer (Cisbio) was added and the plates were incubated at 25° C. for 45 min with shaking. 10 μL of cell lysates from the 96-well plates were transferred to a 384-well plate (Greiner) containing 2.5 µL/well HTRF® pre-mixed antibodies (Cisbio 64AERPEH).
Incubate 4 hours at 25° C. and then read HTRF signals on Tecan Spark multimode microplate reader. The data were analyzed using a 4-parameter logistic model to calculate IC50 values.
Background: In TR-FRET formats the signal depends on donor and acceptor labels being close together.

Assay [2] concerns NCI-H358 cells express KRAS G12C. Kind of assay: Cell growth inhibition assay (CCK-8). The assay is classed as cell-based. The conditions noted are these: Homo sapiens, 144 h; NCI-H358, 6 days incubation. The method, then:
3. Cell Growth inhibition assay
NCI-H358 cells express KRAS G12C were cultured in RPMI 1640 medium (Gibco) containing 10% fetal bovine serum (Gibco). Cells in culture medium were plated in 96-well plates at a concentration of 3000 cells/well ([…]) and allowed to attach overnight. The next day, compounds were diluted in culture medium and added to the plates. After 6 days incubation in a 37° C./5% CO2 cell incubator, the medium was removed, then 100 μL of 1×CCK-8 (MCE) in culture medium was added in each well. The plates were incubated 1.5-2 hours in a 37° C./5% CO2 cell incubator. OD450 signals were read on Tecan Spark multimode microplate reader and analyzed using a 4-parameter logistic model to calculate IC50 values.

The target in another assay is T1, KRAS G12C (Homo sapiens, UniProt P01116, G12C).
T1 construct: HIS-KRAS (G12C, aa 2-185, Sino biological); purchased Sino biological
T1 sequence (P01116 2-185 isoform P01116-2 G12C): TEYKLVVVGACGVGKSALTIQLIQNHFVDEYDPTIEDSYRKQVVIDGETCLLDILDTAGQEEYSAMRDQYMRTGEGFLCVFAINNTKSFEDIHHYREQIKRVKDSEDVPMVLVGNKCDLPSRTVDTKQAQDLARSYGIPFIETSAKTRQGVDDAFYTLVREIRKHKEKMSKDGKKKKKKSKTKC
As to the kind of experiment: SOS1 catalyzed nucleotide exchange assay (TR-FRET). Type of assay: biochemical. Conditions: GDP-loaded HIS-KRAS(G12C), 1 hour pre-incubation with compound. How it is done:
1. SOS1 Catalyzed Nucleotide Exchange Assay
HIS-KRAS (G12C, aa 2-185, Sino biological) was diluted to […] EDTA buffer (20 mM HEPES, pH 7.4, 50 mM NaCl, 10 mM EDA, 0.01% (v/v) Tween-20) and incubated for 30 min at 25° C. The EDTA pretreated HIS-KRAS(G12C) was diluted to 12 nM in assay buffer (25 mM HEPES, pH 7.4, 120 mM NaCl, 5 mM MgCl2, 1 mM DTI, 0.01% (v/v) Tween 20, 0.1% (w/v) BSA) containing 120 nM GDP(Sigma) and Mab Anti 6HIS-Tb cryptate Gold(Cisbio) and incubated for 1 hour at 25° C. to prepare GDP-loaded HIS-KRAS(G12C). The GDP-loaded HIS-KRAS(G12C) was pre-incubation with diluted compounds in a 384-well plate (Greiner) for 1 hour, then purified SOS 1ExD (Flag tag, aa 564-1049) and BODIPY™FL GTP (Invitrogen) were added to the assay wells (Final concentration: 3 nM HIS-KRAS(G12C), 2 μM SOS1 ExD, 80 nM BODIPY™FL GTP, 21 ng/mL MAb Anti 6HS-Tb cryptate Gold) and incubated for 4 hours at 25° C. TR-FRET signals were then read on Tecan Spark multimode microplate reader. The parameters were F486: Excitation 340 (35) nm, Emission 486 (10) nm, Lag time 100 μs, Integration time […]; F515: Excitation 340 (35) nm, Emission 515 (10) nm, Lag time […], Integration time 200 s. TR-FRET ratios for each individual wells were calculated by equation: TR-FRET ratio=(Signal F515/Signal F486)*10000. Then the data were analyzed using a 4-parameter logistic model to calculate IC50 values.

For orientation: IC50 means the point on the concentration scale where inhibition reaches its midpoint. As to `C=CC(=O)N1CCN(c2nc(OC[C@@H]3CC[C@H](N(C)C)C3)nc3c2CCN(c2cccc4cccc(C)c24)C3)CC1CC#N` (stereo partly drawn) [Compound 22, 2-(1-acryloyl-4-(2-(((1R,3S)-3-(dimethylamino)cyclopentyl)methoxy)-7-(8-methylnaphthalen-1-yl)-5,6,7,8-tetrahydropyrido[3,4-d]pyrimidin-4-yl)piperazin-2-yl)acetonitrile], the IC50 in assay [1] worked out at 96.6 nM; in assay [2], 65.2 nM; at KRAS G12C, 10.7 nM.

In the case of `C=CC(=O)N1CCN(c2nc(OCC3CCCC3N(C)C)nc3c2CCN(c2cccc4cccc(C)c24)C3)CC1CC#N` (stereo not drawn) [Compound 23, 2-(1-acryloyl-4-(2-((2-(dimethylamino)cyclopentyl)methoxy)-7-(8-methylnaphthalen-1-yl)-5,6,7,8-tetrahydropyrido[3,4-d]pyrimidin-4-yl)piperazin-2-yl)acetonitrile], the figures for the 50% inhibitory concentration (IC50) (in assay [1]; in assay [2]; on KRAS G12C) were 112 nM, 66.8 nM and 9.45 nM, respectively.

With `C=CC(=O)N1CCN(c2nc(OCC3CCC(N(C)C)C3)nc3c2CCN(c2cccc4cccc(C)c24)C3)CC1CC#N` (stereo not drawn) [Compound 24, 2-(1-acryloyl-4-(2-((3-(dimethylamino)cyclopentyl)methoxy)-7-(8-methylnaphthalen-1-yl)-5,6,7,8-tetrahydropyrido[3,4-d]pyrimidin-4-yl)piperazin-2-yl)acetonitrile], the IC50 in assay [1] came out at 237 nM; in assay [2], 93.6 nM; at KRAS G12C, 20.1 nM.

Take `C=CC(=O)N1CCN(c2nc(OCC3CCCC3N(C)C)nc3c2CCN(c2cccc(Cl)c2Cl)C3)CC1CC#N` (stereo not drawn) [Compound 25, 2-(1-acryloyl-4-(7-(2,3-dichlorophenyl)-2-((2-(dimethylamino)cyclopentyl)methoxy)-5,6,7,8-tetrahydropyrido[3,4-d]pyrimidin-4-yl)piperazin-2-yl)acetonitrile]: the half-inhibitory concentration (IC50) in assay [1] stood at 267 nM; in assay [2], 164 nM; on KRAS G12C, 30.2 nM.

On to `C=CC(=O)N1CCN(c2nc(OCC3CCCC3N(C)C)nc3c2CCN(c2cccc(F)c2C(F)(F)F)C3)CC1CC#N` (stereo not drawn) [Compound 26, 2-(1-acryloyl-4-(2-((2-(dimethylamino)cyclopentyl)methoxy)-7-(3-fluoro-2-(trifluoromethyl)phenyl)-5,6,7,8-tetrahydropyrido[3,4-d]pyrimidin-4-yl)piperazin-2-yl)acetonitrile], for which the IC50 stood at 231 nM in assay [1], 154 nM in assay [2] and 33.7 nM on KRAS G12C.

As to `C=CC(=O)N1CCN(c2nc(OCC3CCCC3N(C)C)nc3c2CCN(c2ccccc2C(F)(F)F)C3)CC1CC#N` (stereo not drawn) [Compound 27, 2-(1-acryloyl-4-(2-((2-(dimethylamino)cyclopentyl)methoxy)-7-(2-(trifluoromethyl)phenyl)-5,6,7,8-tetrahydropyrido[3,4-d]pyrimidin-4-yl)piperazin-2-yl)acetonitrile], the 50% inhibitory concentration (IC50) worked out at 566 nM in assay [1], 310 nM in assay [2] and 84.6 nM at KRAS G12C.

With `C=CC(=O)N1CCN(c2nc(OCC3(CN4CCCC4)CC3)nc3c2CCN(c2cccc(F)c2C(F)(F)F)C3)CC1CC#N` (stereo not drawn) [Compound 34, 2-(1-acryloyl-4-(7-(3-fluoro-2-(trifluoromethyl)phenyl)-2-((1-(pyrrolidin-1-ylmethyl)cyclopropyl)methoxy)-5,6,7,8-tetrahydropyrido[3,4-d]pyrimidin-4-yl)piperazin-2-yl)acetonitrile], the half-maximal inhibitory concentration (IC50) was determined as 54.5 nM in assay [1], 78.6 nM in assay [2] and 15.9 nM on KRAS G12C.

`C=CC(=O)N1CCN(c2nc(OCC3(CN4CCCC4)CC3)nc3c2CCN(c2cccc(Cl)c2Cl)C3)CC1CC#N` (stereo not drawn) [Compound 35, 2-(1-acryloyl-4-(7-(2,3-dichlorophenyl)-2-((1-(pyrrolidin-1-ylmethyl)cyclopropyl)methoxy)-5,6,7,8-tetrahydropyrido[3,4-d]pyrimidin-4-yl)piperazin-2-yl)acetonitrile]: the IC50 was 85.3 nM in assay [1], 106 nM in assay [2] and 17.9 nM on KRAS G12C.
